The results in this text go back to a melting point compilation (Tetko et al.; mined from patent text by program, amines drawn as free bases though some values may be those of a salt).

`OCc1ccccc1C(F)(F)C(F)(F)c1ccccc1` had a melting point of 80 to 81 °C. Turning to `CC(=CC(NC=O)C(=O)OCc1ccccc1)CP(=O)(OC(C)C)OC(C)C` (stereo not given), the melting point is 50 to 58 °C. `CC(=O)C(Cl)=NNc1ccc(C)cc1` yielded a melting point of 141 to 143 °C.

`COc1cc(C)c([N+](=O)[O-])cc1C(=O)NCC1CCCO1` (stereo not given): the melting point is 178 to 180 °C. Then `Cc1c(Cl)ccc2c1[nH]c1c(C(=O)NO)cccc12`, with 200 °C; and `COC(=O)c1cc(N)c(Oc2cc(C)cc(C)c2)c(S(N)(=O)=O)c1`, with 195 to 196 °C; and `O=C(O)COc1ccc(SCc2ccc(OC3CCc4cc(Cl)ccc43)cc2)c2c1CCC2` (stereo not given), with 169 to 170 °C. In turn, `CN1C(=N)CN(c2ccccc2)C1=O` displayed a melting point of 156 to 158 °C.

The molecule `CC(=O)Nc1c([N+](=O)[O-])cnn1-c1c(F)cc(C(F)(F)F)cc1Cl` returned a melting point of 129 to 130 °C. As to `Nc1cccc(C(F)(F)F)c1CCl`, the melting point was 155 to 161 °C. `O=C1CCc2ncc3cc(Cl)c(Cl)cc3c2N1` registered a melting point of 350 °C. Take `NC(=O)N(O)CCNC(=O)c1ccc(Oc2ccc(Cl)cc2)o1`: the melting point lay in the range of 173 to 175 °C. Molecule `O=C(/C=C/c1ccccc1Sc1ccc(Cl)cc1Cl)NCCCCO` returned a melting point of 68 to 71 °C. As to `CCCCCCCCCCCCCCCCC(COC(C)=O)(COC(C)=O)NC(C)=O`, the melting point lay in the range of 84 to 86 °C. `O=C(CCl)NCc1ccc2ccn(C3CCN(CCc4ccc(F)cc4)CC3)c2c1` returned a melting point of 143 to 144 °C. `CCC(C(=O)O)N(C(=O)c1cnn(-c2ccc(F)cc2)c1)c1ccc(OCC(C)(C)C)c(C#N)c1` (stereo not given) registered a melting point of 153 to 155 °C. Consider `CC(C)(C)C(=O)Nc1nc(Cl)c2c(n1)[nH]c1ccccc12`, for which the melting point was 234 °C. As to `O=[N+]([O-])c1ccc(Cn2cncn2)cc1`, the melting point fell in the range of 98 to 100 °C. The molecule `CNC(=O)c1ccccc1Nc1nc(Nc2ccc3c(n2)CCCCS3)ncc1Cl` had a melting point of 169 to 174 °C.

`CC1(C)CC[C@@H](C(=O)O)[C@@H]1SC(=O)c1ccccc1` (relative stereo) gave a melting point of 131 °C. The molecule `COC(=O)Cn1nnnc1-c1cccc(C#N)c1` returned a melting point of 67 to 69 °C. Consider `Oc1ccc2c(c1)C13CCN(CC4CCC4)C(C2)C1CCOC3` (stereo not given), for which the melting point was in the range of 197 to 198 °C.

`COCc1c(I)cc(Cl)nc1OC` displayed a melting point of 69 to 72 °C. With `O=C1NCCN1c1ccc(S(=O)(=O)Nc2ccc(Cl)cc2)cc1`, the melting point fell in the range of 234 to 236 °C.

`OCc1csc(NC2CCCCC2)n1` came in with a melting point of 118 to 120 °C. For the molecule `CC[C@H]1COC(=O)N1c1nc(-c2ccc(Br)cc2)cs1`, the melting point lay in the range of 138 to 140 °C. `N#CC(Cc1c[nH]cn1)(c1ccc(Cl)cc1)c1ccc(Cl)cc1` gave a melting point of 152 to 153 °C. In turn, `C=CCCOc1cc2c(c(Cl)c1Cl)C(=O)C(C)(C1CCCC1)C2` (stereo not given) returned a melting point of 63 to 65 °C. Then `CCCC(C(=O)N(CC)CC)n1cc(C)c(-c2ccccc2)n1` (stereo not given), with 65 to 67 °C. In turn, `CCOC(Cc1ccc(OCCN2CCOc3ccccc32)cc1)C(=O)NCc1ccccc1` (stereo not given) came in with a melting point of 94 to 96 °C. Then `O=C(O)c1cc(-c2ccc(C(F)(F)F)cc2)nc(-c2ccc(C(F)(F)F)cc2)c1`, with 289 to 290 °C. In the case of `N#CC(=Cc1ccc(F)cc1[N+](=O)[O-])C(N)=O`, the melting point is 278 to 279 °C. For the molecule `O=C(Nc1ccc(C(F)(F)F)cc1)N1CCC(c2ccccc2)C(c2ccccc2)=N1` (stereo not given), the melting point was in the range of 171 to 173 °C. `CN(C)c1cc(CC#N)cc(Cc2nc3c(F)c(F)cc(F)c3s2)c1` displayed a melting point of 99 to 100 °C. In the case of `CC(C)(C)OC(=O)C[C@H](NC(=O)c1cccc(NC(=O)C(Cc2ccc(C(=N)N)cc2)NC(=O)OC(C)(C)C)c1)C(=O)N[C@@H](Cc1cccc2ccccc12)C(=O)O` (mixture of isomers), the melting point fell in the range of 263 to 265 °C.

`NNc1cc(-c2ccccc2)c2cc(Cl)ccc2n1` came in with a melting point of 156 to 157 °C.

With `O=C1C(c2cccc(Br)c2)n2cncc2CN1Cc1ccsc1` (stereo not given), the melting point lay within 43 to 45 °C. For `Cc1ccc(S(=O)(=O)Oc2ccc3c4c(nn3CCNCCO)-c3cnccc3C(=O)c24)cc1`, the melting point lay within 131 to 133 °C. For the molecule `CCOc1ccc(C2C(C(=O)c3ccc(C(C)C)cc3)=C(O)C(=O)N2c2ccc(C)nn2)cc1` (stereo not given), the melting point amounted to 279 °C.

Regarding `CCCC=Cn1c2ccccc2c2ccccc21`, the melting point is 47 °C.

The molecule `CCCCCN1Cc2cccc(S(N)(=O)=O)c2S1(=O)=O` had a melting point of 156 to 160 °C. `CN(C)CCc1c[nH]c2ccc(CCC(=O)O)cc12` showed a melting point of 195 to 200 °C. Molecule `COc1ccc(-c2nc3n(c2-c2ccc(OC)cc2)Cc2ccccc2C3)cc1` registered a melting point of 170 to 172 °C. Take `N#CCCCCc1cccc2cncn12`: the melting point fell in the range of 72 to 75 °C. `Cc1csc2c(C=O)ncn12`: the melting point was in the range of 172 to 175 °C. Take `COc1cc(C=C2C(=O)CCc3c2ccc2c3OCO2)c([N+](=O)[O-])cc1OC`: the melting point was in the range of 66 to 68 °C.

Consider `CCOC(=O)c1sc(Oc2ccc(F)cc2)c2c1CCc1cnn(C)c1-2`, for which the melting point was in the range of 94 to 95 °C. Consider `Cc1coc2c1C(=O)CC(c1ccc(F)cc1)C2` (stereo not given), for which the melting point fell in the range of 81 to 82 °C.

Molecule `S=C1NCC(Cl)=NN1c1cc(Cl)cc(Cl)c1` yielded a melting point of 207 to 208 °C.

Molecule `C#CCc1cc(C(O)=S)cc(S(=O)(=O)Cl)c1Oc1ccccc1` came in with a melting point of 177 to 179 °C. Turning to `COc1cc(OC)c2nccc(O)c2c1`, the melting point was 221 to 224 °C. For `CCCC(=O)Nc1n[nH]c2cc(-c3ccc(CC)cc3)ccc12`, the melting point was found to be 210 °C. Take `O=C(C=Cc1cncc(F)c1)NCCCCN1CCN(C(c2ccccc2)c2ccccc2)CC1`: the melting point fell in the range of 128 to 129 °C.

`CCOC(=O)c1cn(C2CC2)c2cc(Cl)c(F)c(Cl)c2c1=O` gave a melting point of 227 to 229 °C.

For the molecule `COc1cccc(C2=CC(=O)N(C)C2=O)c1`, the melting point lay in the range of 138 to 146 °C. With `O=[N+]([O-])c1cc(NCCO)c(Cl)cc1NCCO`, the melting point was 127 to 128 °C. Then `CC(C)CCCc1c(-c2ccc(S(C)(=O)=O)cc2)cnn(-c2ccc(F)c(F)c2)c1=O`, with 111 to 113 °C; and `COC(=O)c1cnc(SC)n1C(c1ccccc1)c1ccccc1`, with 118 °C; and `c1ccc(-c2cc3nccnc3[nH]2)nc1`, with 234 to 235 °C. The molecule `O=C(Nc1n[nH]c(=S)s1)N[C@@H](Cc1ccc(F)cc1)C(=O)N1CCN(c2ccccn2)CC1` gave a melting point of 240 to 242 °C. `COCCOc1ccc(N)cc1S(=O)(=O)O` showed a melting point of over 250 °C. `CN(C)c1ccc(C2OC(=O)c3c(Cl)c(Cl)c(Cl)c(Cl)c32)c(N(C)C)c1` (stereo not given): the melting point was 195 to 197 °C. Then `NC(=O)c1ccc(NC2CCN(Cc3ccccc3)CC2)cc1`, with 192 to 193 °C; and `CCCCCN(Cc1ccc(-c2ccccc2S(=O)(=O)NC(C)(C)C)cc1)C(=O)Cl`, with 125 to 126 °C. `Cn1c(COc2ccc(CC3SC(=O)NC3=O)cc2)nc2ccc(OCCc3ccc(NC(=O)Nc4ccc(Cl)cc4)cc3)cc21` (stereo not given) yielded a melting point of 157 to 162 °C.
